Here are results for 39 molecules from patent publication US20180346446A1, “IRE1 SMALL MOLECULE INHIBITORS” (QUENTIS THERAPEUTICS, INC., priority 2017, published 2018).

The structures appear in SMILES notation. Bounds are passed on as bounds.

Assay [1] concerns the target T1, IRE1a (Homo sapiens, UniProt O75460). As to the kind of experiment: In vitro FRET assay (XBP1 RNA probe cleavage by IRE1a). Type of assay: biochemical. Also noted: purchased SignalChem. The settings on record: 2 nM IRE1a protein. How it is done:
In vitro FRET assay was performed to evaluate the ability of select compounds to inhibit IRE1, the results of which are summarized in Table 3. To perform the in vitro FRET assay, 1× complete assay buffer (CAB; […], 50 mM sodium citrate pH 7.15, ImM magnesium acetate, 0.02% tween 20) was used to dilute SignalChem IRE1a protein to a final concentration of 2 nM. Selected compounds were serially diluted with DMSO in a non-binding black 384-well plate for a total of 15 ul in each well. 2 ul of the serially diluted compound or DMSO control were then added to new wells containing 98 ul of 1×CAB, for a total volume of 100 ul, 10 ul of which were then transferred to wells of a new plate. 5 ul of the diluted IRE1a was then added to each well. 5 ul of a […] XBP1 RNA probe was then added to each well. Fluorescence was then read over 30 minutes in kinetic mode (485/515 nm).
Two RNA probes were used, XBP1 wildtype (SEQ ID NO: 2) which is able to be spliced by active IRE1a or XBP1 mutant (SEQ ID NO: 3) which is unable to be spliced. Each probe contained a 5′ 6-FAM modification and a 3′ IOWA Black FQ modification. […]

Assay [2] deals with T1, IRE1a. As to the kind of experiment: IRE1a Endoribonuclease Nanoluciferase Assay (XBP1 luciferase reporter in 293T cells). In kind it is cell-based. The settings on record: 293T cells transfected with XBP1 luciferase reporter, ER stressors +/- inhibitors. As to the method:
Compounds disclosed herein were assessed for disruption of IRE1 signaling using a IRE1a Endoribonuclease Nanoluciferase Assay. Briefly, 2.5×10^6 293T cells were seeded in a 10 cm^2 tissue culture plate. About 24 hours later, the cells were transfected with Effectene. In a 15 mL Tube, the following was added: 2 ug XBP1 luciferase reporter plasmid (PGK-Luc2-P2A-XBP1u-Nanoluciferase-PEST); 300 ul EC buffer; and 16 ul Enhancer, followed by incubation at room temp for 5 minutes. Next, 60 ul Effectene (Qiagen 301427) was added, followed by incubation at room temperature for 10 minutes. 2.6 mL cDMEM media was added. Old media was aspirated from the cells, followed by addition of 7 mL fresh media. Full transfection mixture was added dropwise to cells. Cells were incubated for 6 hours, followed by trypsinization, centrifugation and resuspension in 11 mL media. 100 uL of cells were plated per a well in a 96 well plate. A day later, ER stressors of choice +/− inhibitors were added. To harvest, media was aspirated from cells completely, then 50 uL 1× passive lysis buffer (Promega: E1941) was added per well and put on shaker (300 rpm) for 30 minutes at room temperature. Cells were centrifuged, and 15 uL sample per well was added to a new, opaque white 384 well plate (Corning 3570). 15 uL OneGlo (nanoluciferase kit, Promega N1630) was added. Plates were spun down, placed on shaker (300 rpm) for 10 minutes. Plates were read on luminometer, 1000 ms integration time per well. 15 uL Stop and Glo (nanoluciferase kit) was added. Plates were spun down, placed on shaker (300 rpm) for 10 minutes. Plates were read on luminometer, 1000 ms second integration time per well. Recordings are provided below in Table 4.
In general terms: In a reporter assay the amount or activity of a reporter protein is the signal.

T1 sequence (O75460 19-977): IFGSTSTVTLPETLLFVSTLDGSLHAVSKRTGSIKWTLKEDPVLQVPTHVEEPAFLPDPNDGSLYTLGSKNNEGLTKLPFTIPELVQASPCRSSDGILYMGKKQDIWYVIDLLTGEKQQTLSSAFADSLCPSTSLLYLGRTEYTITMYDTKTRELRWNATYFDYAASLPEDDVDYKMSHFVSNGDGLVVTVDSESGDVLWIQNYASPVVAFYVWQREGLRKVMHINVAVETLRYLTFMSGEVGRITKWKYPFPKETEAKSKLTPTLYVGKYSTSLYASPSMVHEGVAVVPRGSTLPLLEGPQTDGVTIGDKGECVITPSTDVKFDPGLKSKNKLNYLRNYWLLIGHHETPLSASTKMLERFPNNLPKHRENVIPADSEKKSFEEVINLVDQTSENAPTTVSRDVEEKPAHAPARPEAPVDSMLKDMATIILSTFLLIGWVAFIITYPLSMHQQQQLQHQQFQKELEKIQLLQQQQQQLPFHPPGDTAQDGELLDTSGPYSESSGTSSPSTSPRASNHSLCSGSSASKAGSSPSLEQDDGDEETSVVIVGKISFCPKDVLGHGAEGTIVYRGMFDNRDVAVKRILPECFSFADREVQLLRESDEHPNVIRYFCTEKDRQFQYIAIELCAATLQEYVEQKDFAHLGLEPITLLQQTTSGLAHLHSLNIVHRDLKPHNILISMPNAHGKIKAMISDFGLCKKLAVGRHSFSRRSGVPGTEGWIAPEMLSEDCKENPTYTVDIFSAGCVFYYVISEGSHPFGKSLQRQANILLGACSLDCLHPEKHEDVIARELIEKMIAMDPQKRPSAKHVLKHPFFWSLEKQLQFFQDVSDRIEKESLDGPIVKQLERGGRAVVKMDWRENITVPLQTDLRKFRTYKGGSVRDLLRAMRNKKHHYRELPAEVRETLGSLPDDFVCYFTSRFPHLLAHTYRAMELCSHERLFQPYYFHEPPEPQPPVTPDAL

In general, IC50 refers to the concentration that gives 50% inhibition. A low value points to greater potency. Broadly, the EC50 is the concentration giving half of the maximal effect. A high value points to lower potency in that assay. As to `N[C@H]1CC[C@H](Nc2ncc3cc(-c4ccc(NS(=O)(=O)c5ccccc5Cl)cc4)ccc3n2)CC1` [26; Formic Acid], the IC50 against IRE1a [1] is ≤ 5 nM. Also, the half-maximal effective concentration (EC50) at IRE1a [2] is ≤ 5 nM. Take `COCc1cc(-c2ccc(NS(=O)(=O)c3ccccc3Cl)nc2OC)cc2cnc(N[C@H]3CC[C@H](N)CC3)nc12` [129; Formic Acid]: the IC50 against IRE1a [1] is ≤ 5 nM. For the same molecule, the EC50 on IRE1a [2] is ≤ 5 nM.

For the molecule `CCc1cc(-c2cnc(NS(=O)(=O)c3ccccc3Cl)s2)cc2cnc(N[C@H]3CC[C@H](N)CC3)nc12` [41; Formic Acid], at IRE1a [1], the half-maximal inhibitory concentration (IC50) is ≤ 5 nM. `CCc1cc(-c2ccc(NS(=O)(=O)c3ccccc3)nc2C)cc2cnc(N[C@H]3CC[C@H](N)CC3)nc12` [111; Formic Acid]: the IC50 against IRE1a [1] was ≤ 5 nM. This molecule displayed an EC50 on IRE1a [2] of 50 to 100 nM. In the case of `N[C@H]1CC2C[C@@H](Nc3ncc4cc(-c5ccc(NS(=O)(=O)c6ccccc6Cl)c(F)c5)ccc4n3)CC2C1` (some centres unmarked) [85; Formic Acid], the IC50 at IRE1a [1] was ≤ 5 nM. For the same molecule, the EC50 on IRE1a [2] was > 100 nM. The like results for `NC1CCCC(Nc2ncc3cc(-c4ccc(NS(=O)(=O)c5ccccc5Cl)c(F)c4)ccc3n2)C1` (centres unmarked) [75; Formic Acid] were, in that order, ≤ 5 nM and > 100 nM. The like results for `COc1nc(NS(=O)(=O)c2ccccc2Cl)ccc1-c1cc(C(F)(F)F)c2nc(N[C@H]3CC[C@H](N)CC3)ncc2c1` [134; Formic Acid] were, in that order, ≤ 5 nM and ≤ 5 nM. `CCc1cc(-c2ccc(NS(=O)(=O)c3ccccc3OC)cc2C)cc2cnc(N[C@H]3CC[C@H](N)CC3)nc12` [Compound 13]: the IC50 against IRE1a [1] is > 100 nM.

As to `O=S(=O)(Nc1ccc(-c2ccc3nc(N[C@H]4CCCNC4)ncc3c2)cc1F)c1ccccc1Cl` [76; Formic Acid], the IC50 at IRE1a [1] was ≤ 5 nM. The molecule further registered an EC50 at IRE1a [2] of 5 to 50 nM. The like results for `CCc1cc(-c2cnc(NS(=O)(=O)c3ccccc3Cl)cc2C)cc2cnc(N[C@H]3CC[C@H](N)CC3)nc12` [Compound 4, N-(5-(2-(((1r,4r)-4-aminocyclohexyl)amino)-8-ethylquinazolin-6-yl)-4-methylpyridin-2-yl)-2-chlorobenzenesulfonamide] were, in that order, ≤ 5 nM and 50 to 100 nM. Molecule `CCc1cc(-c2ccc(NS(=O)(=O)c3ccccc3C(F)(F)F)cc2C)cc2cnc(N[C@H]3CC[C@H](N)CC3)nc12` [Compound 7, N-(4-(2-(((1r,4r)-4-aminocyclohexyl)amino)-8-ethylquinazolin-6-yl)-3-methylphenyl)-2-(trifluoromethyl)benzenesulfonamide] gave an IC50 at IRE1a [1] of 5 to 50 nM. Same read-out and setting: then `CCc1nc(NS(=O)(=O)c2ccccc2Cl)ccc1-c1cc2cnc(N[C@H]3CC[C@H](N)CC3)nc2cc1C` [105; Formic Acid], with ≤ 5 nM. The same measure, in the same setting: for `CCc1cc(-c2cc(F)c(NS(=O)(=O)c3ccccc3Cl)cc2OC)cc2cnc(N[C@H]3CC[C@H](N)CC3)nc12` [42; Formic Acid] the value was ≤ 5 nM; for `CCc1cc(-c2ccc(NS(=O)(=O)c3ccccc3Cl)nc2OC)cc2cnc(N[C@H]3CC[C@@H](N)CC3)nc12` [140; Formic Acid], ≤ 5 nM. Same read-out and setting: then `Cc1cc2nc(N[C@H]3CC[C@H](N)CC3)ncc2cc1-c1ccc(NS(=O)(=O)c2ccccc2Cl)nc1C` [106; Formic Acid], with ≤ 5 nM; and `CCc1cc(-c2cc(F)c(NS(=O)(=O)c3ccccc3Cl)nc2OC)cc2cnc(N[C@H]3CC[C@@](C)(N(C)C)CC3)nc12` [144; Formic Acid], with 50 to 100 nM; and `N[C@H]1CC[C@H](Nc2ncc3cc(-c4ccc(NS(=O)(=O)c5ccccc5Cl)c(F)c4)ccc3n2)CC1` [50; Formic Acid], with ≤ 5 nM. Molecule `CCc1cc(-c2ccc(NS(=O)(=O)c3ccccc3Cl)nc2OC)cc2cnc(N[C@H]3CC[C@H](O)CC3)nc12` [101; Formic Acid] returned an IC50 against IRE1a [1] of 5 to 50 nM. Take `N[C@H]1CC[C@H](Nc2ncc3cc(-c4ccc(NS(=O)(=O)c5ccccc5Cl)nn4)ccc3n2)CC1` [49; Formic Acid]: on IRE1a [1], the IC50 was ≤ 5 nM.

As to `CCc1cc(-c2ccc(NS(=O)(=O)c3cc(Cl)ccc3Cl)cc2C)cc2cnc(N[C@H]3CC[C@H](N)CC3)nc12` [Compound 9, N-(4-(2-(((1r,4r)-4-aminocyclohexyl)amino)-8-ethylquinazolin-6-yl)-3-methylphenyl)-2,5-dichlorobenzenesulfonamide], the IC50 against IRE1a [1] is ≤ 5 nM. The same measure, in the same setting: then `COc1cc(-c2ccc(NS(=O)(=O)c3ccccc3Cl)cc2C)cc2cnc(N[C@H]3CC[C@H](N)CC3)nc12` [36; Formic Acid], with ≤ 5 nM; and `CCc1cc(-c2ccc(NS(=O)(=O)c3ccc(Cl)cc3)cc2C)cc2cnc(N[C@H]3CC[C@H](N)CC3)nc12` [Compound 12], with > 100 nM. `CCc1cc(-c2ccc(NS(=O)(=O)c3ccccc3Cl)nc2OC)cc2cnc(NC3CCC(C)(N(C)C)CC3)nc12` (centres unmarked) [143; Formic Acid] gave an IC50 at IRE1a [1] of 5 to 50 nM. The same measure, in the same setting: for `CCc1cc(-c2ccc(NS(=O)(=O)c3ccccc3Cl)cc2Cl)cc2cnc(N[C@H]3CC[C@H](N)CC3)nc12` [17; Formic Acid] the value was > 100 nM; for `CCc1cc(-c2ccc(NS(=O)(=O)c3ccccc3)cc2C)cc2cnc(N[C@H]3CC[C@H](N)CC3)nc12` [15; Formic Acid], > 100 nM; for `CCc1cc(-c2cnc(NS(=O)(=O)c3ccccc3Cl)nc2)cc2cnc(N[C@H]3CC[C@H](N)CC3)nc12` [39; Formic Acid], ≤ 5 nM. Still for that read-out and setting: for `CCc1cc(-c2sc(NS(=O)(=O)c3ccccc3Cl)nc2C)cc2cnc(N[C@H]3CC[C@H](N)CC3)nc12` [38; Formic Acid] the value was ≤ 5 nM; for `CCc1cc(NS(=O)(=O)c2ccccc2Cl)nnc1-c1cc(CC)c2nc(N[C@H]3CC[C@H](N)CC3)ncc2c1` [96; Formic Acid], ≤ 5 nM. The same measure, in the same setting: for `COc1nc(NS(=O)(=O)c2ccccc2Cl)c(F)cc1-c1cc(C)c2nc(N[C@H]3CC[C@@H](N)CC3)ncc2c1` [146; Formic Acid] the value was ≤ 5 nM; for `CCc1cc(-n2cc(NS(=O)(=O)c3ccccc3Cl)cn2)cc2cnc(N[C@H]3CC[C@H](N)CC3)nc12` [43; Formic Acid], ≤ 5 nM.

Consider `CCc1cc(-c2ccc(NS(=O)(=O)c3ccccc3F)cc2C)cc2cnc(N[C@H]3CC[C@H](N)CC3)nc12` [Compound 10, N-(4-(2-(((1r,4r)-4-aminocyclohexyl)amino)-8-ethylquinazolin-6-yl)-3-methylphenyl)-2-fluorobenzenesulfonamide], for which, at IRE1a [1], the IC50 was ≤ 5 nM. For the molecule `CC(C)c1cc(-c2cc(NS(=O)(=O)c3ccccc3Cl)nn2C)cc2cnc(N[C@H]3CC[C@H](N)CC3)nc12` [40; Formic Acid], the IC50 against IRE1a [1] was ≤ 5 nM. Regarding `CCc1cc(-c2cc(F)c(NS(=O)(=O)c3ccccc3Cl)c(F)c2)cc2cnc(N[C@H]3CC[C@H](N)CC3)nc12` [63; Formic Acid], the IC50 at IRE1a [1] is ≤ 5 nM. Same read-out and setting: then `CCc1cc(-c2ccc(N(C)S(=O)(=O)c3ccccc3Cl)cc2C)cc2cnc(N[C@H]3CC[C@H](N)CC3)nc12` [31; Formic Acid], with > 100 nM. Take `CCc1cc(-c2ccc(NS(=O)(=O)c3ccccc3Cl)cc2C(F)(F)F)cc2cnc(N[C@H]3CC[C@H](N)CC3)nc12` [14; Formic Acid]: the IC50 at IRE1a [1] was > 100 nM. Same read-out and setting: for `Cc1cc(N(C)S(=O)(=O)c2ccccc2Cl)ccc1-c1cc(O)c2nc(N[C@H]3CC[C@H](N)CC3)ncc2c1` [30; Formic Acid] the value was 50 to 100 nM; for `CCc1cc(-c2ccc(NS(=O)(=O)c3ccccc3OC(F)(F)F)cc2C)cc2cnc(N[C@H]3CC[C@H](N)CC3)nc12` [Compound 8, N-(4-(2-(((1r,4r)-4-aminocyclohexyl)amino)-8-ethylquinazolin-6-yl)-3-methylphenyl)-2-(trifluoromethoxy)benzenesulfonamide], 5 to 50 nM; for `COc1cc(-c2cc(NS(=O)(=O)c3ccccc3Cl)nn2C)cc2cnc(N[C@H]3CC[C@H](N)CC3)nc12` [45; Formic Acid], 50 to 100 nM. With `COc1nc(NS(=O)(=O)c2ccccc2Cl)ccc1-c1ccc2nc(N[C@H]3CC[C@H](N)CC3)ncc2c1C` [114; Formic Acid], the IC50 against IRE1a [1] lay within 5 to 50 nM.
